Values of other authors, collected in patent publication US20120028902A1, “PEPTIDE AVAILABILITY” (priority 2008, published 2012).

Further increase of plasma IPP AUC when consumed with the meal (yoghurt drink consumed with breakfast, versus fasted state): 30% | Increase of plasma IPP level (area under the concentration vs. time curve) compared to a control drink (yoghurt drink drunk in overnight fasted state 30 min prior to breakfast): more than two-fold
SMILES: CC[C@H](C)[C@H](N)C(=O)N1CCC[C@H]1C(=O)N1CCC[C@H]1C(=O)O [IPP, isoleucine-proline-proline]
